Laboratory results published in paper PMC3271384 (Molecular Genetics and Metabolism, 2012).
Substitutions are numbered along the chain they refer to.

Legend:
AGT-Mi = target: T1, AGT-Mi (Homo sapiens, UniProt P21549, G350D/I340M/P11L); assay: quenching of intrinsic fluorescence of apoenzyme; type: binding
T1 sequence (P21549 1-392 P11L/I340M/G350D): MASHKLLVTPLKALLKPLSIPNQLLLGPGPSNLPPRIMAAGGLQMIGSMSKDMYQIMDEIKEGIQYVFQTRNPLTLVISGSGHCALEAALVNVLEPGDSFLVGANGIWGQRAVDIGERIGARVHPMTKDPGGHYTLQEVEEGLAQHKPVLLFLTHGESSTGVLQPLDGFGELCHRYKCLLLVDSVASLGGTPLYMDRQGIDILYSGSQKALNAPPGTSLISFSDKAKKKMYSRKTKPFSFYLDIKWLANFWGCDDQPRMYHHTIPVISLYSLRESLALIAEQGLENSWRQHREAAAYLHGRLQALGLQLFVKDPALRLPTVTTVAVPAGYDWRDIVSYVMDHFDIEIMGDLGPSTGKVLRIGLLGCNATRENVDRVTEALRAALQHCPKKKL

AGT-Ma = target: T2, AGT-Ma (Homo sapiens, UniProt P21549, P319L); assay: quenching of intrinsic fluorescence of apoenzyme; type: binding
T2 sequence (P21549 1-392 P319L): T1 sequence (P21549 1-392 P11L/I340M/G350D) with L11P, P319L, M340I, D350G

Cc1ncc(COP(=O)(O)O)c(C=O)c1O [PLP]
Kd (AGT-Mi): 31 ± 5 nM
Kd (AGT-Ma): 190 ± 40 nM
